The experiment addresses T1, Pituitary adenylate cyclase-activating polypeptide (Rattus norvegicus, UniProt P13589).
T1 sequence (P13589 whole entry): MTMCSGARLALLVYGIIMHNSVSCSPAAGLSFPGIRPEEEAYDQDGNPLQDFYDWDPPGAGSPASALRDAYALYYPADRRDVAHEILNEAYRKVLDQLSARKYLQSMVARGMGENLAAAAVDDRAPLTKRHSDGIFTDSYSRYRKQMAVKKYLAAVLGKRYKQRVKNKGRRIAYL

Each structure is given as a SMILES string. Where a SMILES comes first, the peptide text is derived from it. [ ]: non-standard residue; d: D form. ξ: configuration not given here. Ile(3ξ) = CCC(C)[C@H](N)C(=O)O

What is called Ki is the dissociation constant of the complex between target and ligand, obtained from inhibition or displacement. High values mean weaker binding, low ones tighter binding. Consider `CCC(C)[C@H](N)C(=O)N[C@@H](Cc1ccccc1)C(=O)N[C@H](C(=O)N[C@@H](CC(=O)O)C(=O)N[C@@H](CO)C(=O)N[C@@H](Cc1ccc(O)cc1)C(=O)N[C@@H](CO)C(=O)N[C@@H](CCCN=C(N)N)C(=O)N[C@@H](Cc1ccc(O)cc1)C(=O)N[C@@H](CCCN=C(N)N)C(=O)N[C@@H](CCCCN)C(=O)N[C@@H](CCC(N)=O)C(=O)N[C@@H](CCSC)C(=O)N[C@@H](C)C(=O)N[C@H](C(=O)N[C@@H](CCCCN)C(=O)N[C@@H](CCCCN)C(=O)N[C@@H](Cc1ccc(O)cc1)C(=O)N[C@@H](CC(C)C)C(=O)N[C@@H](C)C(=O)N[C@@H](C)C(=O)N[C@H](C(=O)N[C@@H](CC(C)C)C(=O)NCC(=O)N[C@@H](CCCCN)C(=O)N[C@@H](CCCN=C(N)N)C(=O)N[C@@H](Cc1ccc(O)cc1)C(=O)N[C@@H](CCCCN)C(=O)N[C@@H](CCC(N)=O)C(=O)N[C@@H](CCCN=C(N)N)C(=O)N[C@H](C(=O)N[C@@H](CCCCN)C(=O)N[C@@H](CC(N)=O)C(=O)N[C@@H](CCCCN)C(N)=O)C(C)C)C(C)C)C(C)C)[C@@H](C)O` (stereo partly specified) [PACAP(5-38)] (H-[Ile(3ξ)]FTDSYSRYRKQMAVKKYLAAVLGKRYKQRVKNK-NH2), for which the inhibitory constant (Ki) amounted to 9 nM.
`CCC(C)[C@H](NC(=O)CNC(=O)[C@H](CC(=O)O)NC(=O)[C@@H](C)NC(=O)[C@@H](N)Cc1cnc[nH]1)C(=O)N[C@@H](Cc1ccccc1)C(=O)N[C@H](C(=O)N[C@@H](CC(=O)O)C(=O)N[C@@H](CO)C(=O)N[C@@H](Cc1ccc(O)cc1)C(=O)N[C@@H](CO)C(=O)N[C@@H](CCCN=C(N)N)C(=O)N[C@@H](Cc1ccc(O)cc1)C(=O)N[C@@H](CCCN=C(N)N)C(=O)N[C@@H](CCCCN)C(=O)N[C@@H](CCC(N)=O)C(=O)N[C@@H](CCSC)C(=O)N[C@@H](C)C(=O)N[C@H](C(=O)N[C@@H](CCCCN)C(=O)N[C@@H](CCCCN)C(=O)N[C@@H](Cc1ccc(O)cc1)C(=O)N[C@@H](CC(C)C)C(=O)N[C@@H](C)C(=O)N[C@@H](C)C(=O)N[C@H](C(=O)N[C@@H](CC(C)C)C(=O)NCC(=O)N[C@@H](CCCCN)C(=O)N[C@@H](CCCN=C(N)N)C(=O)N[C@@H](Cc1ccc(O)cc1)C(=O)N[C@@H](CCCCN)C(=O)N[C@@H](CCC(N)=O)C(=O)N[C@@H](CCCN=C(N)N)C(=O)N[C@H](C(=O)N[C@@H](CCCCN)C(=O)N[C@@H](CC(N)=O)C(=O)N[C@@H](CCCCN)C(N)=O)C(C)C)C(C)C)C(C)C)[C@@H](C)O` (stereo partly specified) [[DAla2]PACAP(1-38)] yielded a Ki of 0.7 nM.
For `CC[C@H](C)[C@H](NC(=O)CNC(=O)[C@H](CC(=O)O)NC(=O)[C@H](CCCN=C(N)N)NC(=O)[C@@H](N)Cc1cnc[nH]1)C(=O)N[C@@H](Cc1ccccc1)C(=O)N[C@H](C(=O)N[C@@H](CC(=O)O)C(=O)N[C@@H](CO)C(=O)N[C@@H](Cc1ccc(O)cc1)C(=O)N[C@@H](CO)C(=O)N[C@@H](CCCN=C(N)N)C(=O)N[C@@H](Cc1ccc(O)cc1)C(=O)N[C@@H](CCCN=C(N)N)C(=O)N[C@@H](CCCCN)C(=O)N[C@@H](CCC(N)=O)C(=O)N[C@@H](CCSC)C(=O)N[C@@H](C)C(=O)N[C@H](C(=O)N[C@@H](CCCCN)C(=O)N[C@@H](CCCCN)C(=O)N[C@@H](Cc1ccc(O)cc1)C(=O)N[C@@H](CC(C)C)C(=O)N[C@@H](C)C(=O)N[C@@H](C)C(=O)N[C@H](C(=O)N[C@@H](CC(C)C)C(N)=O)C(C)C)C(C)C)[C@@H](C)O` [[Arg2]PACAP(1-27)] the value was 1000 nM; for `CC[C@H](C)[C@H](NC(=O)CNC(=O)[C@H](CC(=O)O)NC(=O)[C@H](C)NC(=O)[C@@H](N)Cc1cnc[nH]1)C(=O)N[C@@H](Cc1ccccc1)C(=O)N[C@H](C(=O)N[C@@H](CC(=O)O)C(=O)N[C@@H](CO)C(=O)N[C@@H](Cc1ccc(O)cc1)C(=O)N[C@@H](CO)C(=O)N[C@@H](CCCNC(=N)N)C(=O)N[C@@H](Cc1ccc(O)cc1)C(=O)N[C@@H](CCCNC(=N)N)C(=O)N[C@@H](CCCCN)C(=O)N[C@@H](CCC(N)=O)C(=O)N[C@@H](CCSC)C(=O)N[C@@H](C)C(=O)N[C@H](C(=O)N[C@@H](CCCCN)C(=O)N[C@@H](CCCCN)C(=O)N[C@@H](Cc1ccc(O)cc1)C(=O)N[C@@H](CC(C)C)C(=O)N[C@@H](C)C(=O)N[C@@H](C)C(=O)N[C@H](C(=O)N[C@@H](CC(C)C)C(=O)NCC(=O)N[C@@H](CCCCN)C(=O)N[C@@H](CCCNC(=N)N)C(=O)N[C@@H](Cc1ccc(O)cc1)C(=O)N[C@@H](CCCCN)C(=O)N[C@@H](CCC(N)=O)C(=O)N[C@@H](CCCNC(=N)N)C(=O)N[C@H](C(=O)N[C@@H](CCCCN)C(=O)N[C@@H](CC(N)=O)C(=O)N[C@@H](CCCCN)C(N)=O)C(C)C)C(C)C)C(C)C)[C@@H](C)O`, 0.5 nM; for `CCC(C)[C@H](NC(=O)CNC(=O)[C@@H](N)CC(=O)O)C(=O)N[C@@H](Cc1ccccc1)C(=O)N[C@H](C(=O)N[C@@H](CC(=O)O)C(=O)N[C@@H](CO)C(=O)N[C@@H](Cc1ccc(O)cc1)C(=O)N[C@@H](CO)C(=O)N[C@@H](CCCN=C(N)N)C(=O)N[C@@H](Cc1ccc(O)cc1)C(=O)N[C@@H](CCCN=C(N)N)C(=O)N[C@@H](CCCCN)C(=O)N[C@@H](CCC(N)=O)C(=O)N[C@@H](CCSC)C(=O)N[C@@H](C)C(=O)N[C@H](C(=O)N[C@@H](CCCCN)C(=O)N[C@@H](CCCCN)C(=O)N[C@@H](Cc1ccc(O)cc1)C(=O)N[C@@H](CC(C)C)C(=O)N[C@@H](C)C(=O)N[C@@H](C)C(=O)N[C@H](C(=O)N[C@@H](CC(C)C)C(=O)NCC(=O)N[C@@H](CCCCN)C(=O)N[C@@H](CCCN=C(N)N)C(=O)N[C@@H](Cc1ccc(O)cc1)C(=O)N[C@@H](CCCCN)C(=O)N[C@@H](CCC(N)=O)C(=O)N[C@@H](CCCN=C(N)N)C(=O)N[C@H](C(=O)N[C@@H](CCCCN)C(=O)N[C@@H](CC(N)=O)C(=O)N[C@@H](CCCCN)C(N)=O)C(C)C)C(C)C)C(C)C)[C@@H](C)O` (stereo partly specified) [PACAP(3-38)] (H-DG[Ile(3ξ)]FTDSYSRYRKQMAVKKYLAAVLGKRYKQRVKNK-NH2), 10 nM.
Regarding `CCC(C)[C@H](NC(=O)CNC(=O)[C@H](CC(=O)O)NC(=O)[C@@H](Cc1ccccc1)NC(=O)[C@@H](N)Cc1cnc[nH]1)C(=O)N[C@@H](Cc1ccccc1)C(=O)N[C@H](C(=O)N[C@@H](CC(=O)O)C(=O)N[C@@H](CO)C(=O)N[C@@H](Cc1ccc(O)cc1)C(=O)N[C@@H](CO)C(=O)N[C@@H](CCCN=C(N)N)C(=O)N[C@@H](Cc1ccc(O)cc1)C(=O)N[C@@H](CCCN=C(N)N)C(=O)N[C@@H](CCCCN)C(=O)N[C@@H](CCC(N)=O)C(=O)N[C@@H](CCSC)C(=O)N[C@@H](C)C(=O)N[C@H](C(=O)N[C@@H](CCCCN)C(=O)N[C@@H](CCCCN)C(=O)N[C@@H](Cc1ccc(O)cc1)C(=O)N[C@@H](CC(C)C)C(=O)N[C@@H](C)C(=O)N[C@@H](C)C(=O)N[C@H](C(=O)N[C@@H](CC(C)C)C(=O)NCC(=O)N[C@@H](CCCCN)C(=O)N[C@@H](CCCN=C(N)N)C(=O)N[C@@H](Cc1ccc(O)cc1)C(=O)N[C@@H](CCCCN)C(=O)N[C@@H](CCC(N)=O)C(=O)N[C@@H](CCCN=C(N)N)C(=O)N[C@H](C(=O)N[C@@H](CCCCN)C(=O)N[C@@H](CC(N)=O)C(=O)N[C@@H](CCCCN)C(N)=O)C(C)C)C(C)C)C(C)C)[C@@H](C)O` (stereo partly drawn) [[D-Phe2]PACAP-38] (H-H[dF]DG[Ile(3ξ)]FTDSYSRYRKQMAVKKYLAAVLGKRYKQRVKNK-NH2), the Ki is 8 nM.

Source of the values: BindingDB's records for doi:10.1016/s0028-3908(05)80009-7 (Universit&Eacute, 1994).
